According to patent US20220298213A1, “IN VIVO ENGINEERED CEREBLON PROTEIN” (Vividion Therapeutics, Inc., priority 2018, published 2022):
Where two headings read alike, the source gives them in different places.

How the values were obtained:
Assay type in all cases: binding
[1] = biological target: T1, CRBN Cys343 (Homo sapiens, UniProt Q96SW2); experiment: Inhibition of iodoacetamide probe labeling of CRBN cysteines, cell lysate (Table 3A); details: read-out: % inhibition of iodoacetamide probe labeling, Cys343
T1 construct: endogenous in cells
Description: (§1) “X@Y” means that x % inhibition of iodoacetamide probe labeling was observed by treatment of cell lysate with the give compound in each row of the table for 1 h at a concentration of y micromolar. There was consistently high inhibition at C318 in addition to C287, which can be attributed to an allosteric inhibition.

[2] = biological target: T2, CRBN Cys234 (Homo sapiens, UniProt Q96SW2); experiment: as above; details: read-out: % inhibition of iodoacetamide probe labeling, Cys234
T2 construct: endogenous in cells
Description: as §1

[3] = biological target: T3, CRBN Cys287 (Homo sapiens, UniProt Q96SW2); experiment: as above
T3 construct: endogenous in cells
Description: as §1

[4] = biological target: T4, CRBN Cys219 (Homo sapiens, UniProt Q96SW2); experiment: as above; details: read-out: % inhibition of iodoacetamide probe labeling, Cys219
T4 construct: endogenous in cells
Description: as §1

[5] = biological target: T5, CRBN Cys205 (Homo sapiens, UniProt Q96SW2); experiment: as above; details: read-out: % inhibition of iodoacetamide probe labeling, Cys205
T5 construct: endogenous in cells
Description: as §1

[6] = biological target: T6, CRBN Cys318 (Homo sapiens, UniProt Q96SW2); experiment: as above
T6 construct: endogenous in cells
Description: as §1

[7] = biological target: T7, TEC_449 (Homo sapiens, UniProt P42680); experiment: Probe labeling at native and denatured states after pretreatment (Table 2); details: screening concentration; for inhibition of probe labeling, TEC_449, Den.: denatured state; for inhibition of probe labeling, TEC_449, Nat.: native state
T7 construct: In each the cell lysate was pretreated with compound; endogenous in cells
T7 sequence (P42680 1-631): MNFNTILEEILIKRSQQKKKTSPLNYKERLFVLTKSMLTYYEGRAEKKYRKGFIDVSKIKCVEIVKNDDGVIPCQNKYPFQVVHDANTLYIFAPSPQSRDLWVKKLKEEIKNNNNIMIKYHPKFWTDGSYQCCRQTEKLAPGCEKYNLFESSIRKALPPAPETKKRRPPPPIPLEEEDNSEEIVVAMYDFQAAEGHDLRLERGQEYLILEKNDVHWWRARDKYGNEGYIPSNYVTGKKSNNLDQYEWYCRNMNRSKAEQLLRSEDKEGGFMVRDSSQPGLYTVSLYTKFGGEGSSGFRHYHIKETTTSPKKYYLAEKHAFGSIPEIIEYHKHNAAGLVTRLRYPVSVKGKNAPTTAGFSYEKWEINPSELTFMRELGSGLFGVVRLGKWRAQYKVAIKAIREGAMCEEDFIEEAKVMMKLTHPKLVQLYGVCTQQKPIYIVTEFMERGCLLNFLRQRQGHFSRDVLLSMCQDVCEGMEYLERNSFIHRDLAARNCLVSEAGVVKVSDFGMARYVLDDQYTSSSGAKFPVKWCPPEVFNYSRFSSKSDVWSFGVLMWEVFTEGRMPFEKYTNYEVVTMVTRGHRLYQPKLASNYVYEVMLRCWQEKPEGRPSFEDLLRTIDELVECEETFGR

[8] = biological target: T8, BTK_481 (Homo sapiens, UniProt Q06187); experiment: as above; details: screening concentration; for inhibition of probe labeling, BTK_481, Den.: denatured state; for inhibition of probe labeling, BTK_481, Nat.: native state
T8 construct: In each the cell lysate was pretreated with compound; endogenous in cells

[9] = biological target: T9, CRBN_326 (Homo sapiens, UniProt Q96SW2); experiment: as above
T9 construct: endogenous in cells; host or cells: cell lysate
Description: (§2) To determine whether the co-inhibition of C287 and C318 was due to a direct or indirect mechanism, CRBN was pretreated with various Michael acceptor compounds and then tested for probe labeling in its native and denatured states.
(§3) In each the cell lysate was pretreated with compound, for native state data the probe was immediately added and for denatured data the probe was added after an additional step of denaturation (schematic shown in FIG. 4).

[10] = biological target: T10, CRBN_188 (Homo sapiens, UniProt Q96SW2); experiment: as above
T10 construct: endogenous in cells; host or cells: cell lysate
Description: as §2, §3

[11] = biological target: T11, CRBN_310 (Homo sapiens, UniProt Q96SW2); experiment: as above
T11 construct: endogenous in cells; host or cells: cell lysate
Description: as §2, §3

[12] = biological target: T12, CRBN_322 (Homo sapiens, UniProt Q96SW2); experiment: as above
T12 construct: endogenous in cells; host or cells: cell lysate
Description: as §2, §3

[13] = biological target: T13, CRBN_343 (Homo sapiens, UniProt Q96SW2); experiment: as above
T13 construct: endogenous in cells; host or cells: cell lysate
Description: as §2, §3

[14] = biological target: T14, CRBN_205 (Homo sapiens, UniProt Q96SW2); experiment: as above
T14 construct: endogenous in cells; host or cells: cell lysate
Description: as §2, §3

[15] = biological target: T15, CRBN_441 (Homo sapiens, UniProt Q96SW2); experiment: as above
T15 construct: endogenous in cells; host or cells: cell lysate
Description: as §2, §3

[16] = biological target: T16, CRBN_234 (Homo sapiens, UniProt Q96SW2); experiment: as above
T16 construct: endogenous in cells; host or cells: cell lysate
Description: as §2, §3

[17] = biological target: T17, CRBN_219 (Homo sapiens, UniProt Q96SW2); experiment: as above
T17 construct: endogenous in cells; host or cells: cell lysate
Description: as §2, §3

[18] = biological target: CRBN-318 (Homo sapiens, UniProt Q96SW2); experiment: as above; parameters: endogenous in cells; host or cells: cell lysate; details: for inhibition of probe labeling, CRBN_318, Nat.: native state, cell lysate pretreated
Description: as §2, §3

[19] = biological target: CRBN-287 (Homo sapiens, UniProt Q96SW2); experiment: as above; parameters: endogenous in cells; host or cells: cell lysate; details: for inhibition of probe labeling, CRBN_287, Nat.: native state, cell lysate pretreated
Description: as §2, §3

[20] = 0.8 micromolar, cell lysate, 1 h
[21] = 20 micromolar, cell lysate, 1 h
[22] = read-out: % inhibition of iodoacetamide probe labeling, Cys287
[23] = denatured state, screening concentration
[24] = native state, screening concentration
[25] = denatured state, probe added after denaturation, screening concentration

T11 sequence (Q96SW2 whole entry): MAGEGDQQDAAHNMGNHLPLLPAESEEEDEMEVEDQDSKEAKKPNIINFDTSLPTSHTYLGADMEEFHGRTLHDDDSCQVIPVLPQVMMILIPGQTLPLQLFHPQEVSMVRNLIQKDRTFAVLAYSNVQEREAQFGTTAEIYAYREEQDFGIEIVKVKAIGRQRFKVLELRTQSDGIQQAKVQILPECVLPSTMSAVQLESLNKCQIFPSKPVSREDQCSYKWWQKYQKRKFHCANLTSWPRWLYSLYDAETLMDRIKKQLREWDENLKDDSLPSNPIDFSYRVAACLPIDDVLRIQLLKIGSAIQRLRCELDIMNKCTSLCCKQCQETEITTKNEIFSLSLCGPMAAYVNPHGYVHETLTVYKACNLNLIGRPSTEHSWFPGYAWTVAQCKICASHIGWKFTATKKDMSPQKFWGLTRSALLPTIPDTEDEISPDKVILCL
T14 sequence (Q96SW2 whole entry): as above
T9 sequence (Q96SW2 whole entry): as above
T15 sequence (Q96SW2 whole entry): as above
T13 sequence (Q96SW2 whole entry): as above
Chain of CRBN-287 (Q96SW2 whole entry): as above
T17 sequence (Q96SW2 whole entry): as above
T3 sequence (Q96SW2 whole entry): as above
T16 sequence (Q96SW2 whole entry): as above
T10 sequence (Q96SW2 whole entry): as above
Chain of CRBN-318 (Q96SW2 whole entry): as above
T12 sequence (Q96SW2 whole entry): as above
T6 sequence (Q96SW2 whole entry): as above
T8 sequence (Q06187 whole entry): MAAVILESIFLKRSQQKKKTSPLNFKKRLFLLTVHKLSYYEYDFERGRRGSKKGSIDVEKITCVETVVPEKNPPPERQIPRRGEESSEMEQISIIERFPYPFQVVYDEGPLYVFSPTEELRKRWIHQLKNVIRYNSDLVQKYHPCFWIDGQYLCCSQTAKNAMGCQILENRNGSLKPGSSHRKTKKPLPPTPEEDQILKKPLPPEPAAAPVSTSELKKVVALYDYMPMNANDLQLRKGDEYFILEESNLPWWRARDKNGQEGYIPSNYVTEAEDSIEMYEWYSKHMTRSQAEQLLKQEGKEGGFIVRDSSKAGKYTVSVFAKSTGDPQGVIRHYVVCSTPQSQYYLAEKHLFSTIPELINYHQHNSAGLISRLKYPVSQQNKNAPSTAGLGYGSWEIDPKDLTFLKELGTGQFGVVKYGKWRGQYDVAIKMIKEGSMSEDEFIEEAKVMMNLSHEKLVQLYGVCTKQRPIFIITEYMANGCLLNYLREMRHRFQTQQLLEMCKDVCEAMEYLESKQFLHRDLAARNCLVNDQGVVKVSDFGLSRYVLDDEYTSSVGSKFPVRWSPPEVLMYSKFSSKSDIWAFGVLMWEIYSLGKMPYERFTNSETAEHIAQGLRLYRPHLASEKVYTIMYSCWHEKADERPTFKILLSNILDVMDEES
T5 sequence (Q96SW2 whole entry): as the sequence (Q96SW2 whole entry) above
T2 sequence (Q96SW2 whole entry): as above
T4 sequence (Q96SW2 whole entry): as above
T1 sequence (Q96SW2 whole entry): as above

| SMILES | inhibition of probe labeling, TEC_449, Den. [7] [%] | inhibition of probe labeling, TEC_449, Nat. [7] [%] | inhibition of probe labeling, BTK_481, Den. [8] [%] | inhibition of probe labeling, BTK_481, Nat. [8] [%] | inhibition of probe labeling, CRBN_326, Den. [9, 23] [%] | inhibition of probe labeling, CRBN_188, Den. [10, 23] [%] | inhibition of probe labeling, CRBN_188, Nat. [10, 24] [%] | inhibition of probe labeling, CRBN_310, Den. [11, 23] [%] | inhibition of probe labeling, CRBN_310, Nat. [11, 24] [%] | inhibition of probe labeling, CRBN_322, Den. [12, 23] [%] | inhibition of probe labeling, CRBN_322, Nat. [12, 24] [%] | inhibition of probe labeling, CRBN_343, Den. [13, 23] [%] | inhibition of probe labeling, CRBN_205, Den. [14, 23] [%] | inhibition of probe labeling, CRBN_205, Nat. [14, 24] [%] | inhibition of probe labeling, CRBN_441, Den. [15, 23] [%] | inhibition of probe labeling, CRBN_234, Den. [16, 23] [%] | inhibition of probe labeling, CRBN_234, Nat. [16, 24] [%] | inhibition of probe labeling, CRBN_219, Den. [17, 23] [%] | inhibition of probe labeling, CRBN_219, Nat. [17, 24] [%] | inhibition of probe labeling, CRBN_318, Den. [18, 25] [%] | also measured |
| --- | --- | --- | --- | --- | --- | --- | --- | --- | --- | --- | --- | --- | --- | --- | --- | --- | --- | --- | --- | --- | --- |
| COc1ccccc1-c1cccc(OC2CN(C(=O)/C(C#N)=C/C(C)C)C2)c1 [Example A8] | – | – | – | – | – | – | – | – | – | – | – | – | – | – | – | – | – | – | – | – | inhibition at 100 µM [1]: 10%; inhibition at 100 µM [2]: 31%; inhibition at 500 µM [2]: 44%; inhibition at 0.8 µM [3, 20]: 80%; inhibition at 20 µM [3, 21]: 94%; inhibition at 100 µM [3, 22]: 96%; inhibition at 500 µM [3, 22]: 98%; inhibition at 100 µM [4]: -5%; inhibition at 500 µM [4]: 4%; inhibition at 100 µM [5]: 19%; inhibition at 500 µM [5]: 32%; inhibition at 0.8 µM [6, 20]: 76%; inhibition at 20 µM [6, 21]: 90%; inhibition at 100 µM ([6]; read-out: % inhibition of iodoacetamide probe labeling, Cys318, 100 micromolar, cell lysate, 1 h): 93%; inhibition at 500 µM ([6]; read-out: % inhibition of iodoacetamide probe labeling, Cys318, 500 micromolar, cell lysate, 1 h): 96% |
| C=CC(=O)N1CCC(Oc2cc(C#N)cc(-c3ccccc3OC)c2)CC1 [drawing 205] | 33 | 28 | 21 | 52 | −6 | −28 | −18 | 43 | 54 | 19 | 25 | −5 | 4 | −4 | −6 | 26 | 11 | −2 | −36 | 38 | inhibition of probe labeling, CRBN_318, Nat. ([18]; screening concentration): 92%; inhibition of probe labeling, CRBN_287, Den. [19, 25]: 91%; inhibition of probe labeling, CRBN_287, Nat. ([19]; screening concentration): 98% |
| C=CC(=O)N1CCC(Oc2cccc(-c3ccccc3OC)c2)CC1 [drawing 206] | −4 | 4 | −28 | 2 | −15 | −44 | −16 | 35 | 46 | 27 | 2 | −12 | 0 | −20 | −22 | 21 | 27 | 12 | −25 | 28 | inhibition of probe labeling, CRBN_318, Nat. ([18]; screening concentration): 82%; inhibition of probe labeling, CRBN_287, Den. [19, 25]: 76%; inhibition of probe labeling, CRBN_287, Nat. ([19]; screening concentration): 91% |
| C=CC(=O)N(c1ccccc1)c1ccc(Br)cc1 [reference compound] | 95 | 96 | 98 | 97 | – | – | – | – | – | – | – | – | – | – | – | – | – | – | – | – | inhibition of probe labeling, CRBN_326, Den. [9]: −8%; inhibition of probe labeling, CRBN_188, Den. [10]: −6%; inhibition of probe labeling, CRBN_188, Nat. [10]: −36%; inhibition of probe labeling, CRBN_310, Den. [11]: 50%; inhibition of probe labeling, CRBN_310, Nat. [11]: 2%; inhibition of probe labeling, CRBN_322, Den. [12]: 29%; inhibition of probe labeling, CRBN_322, Nat. [12]: 29%; inhibition of probe labeling, CRBN_343, Den. [13]: −10%; inhibition of probe labeling, CRBN_205, Den. [14]: 13%; inhibition of probe labeling, CRBN_205, Nat. [14]: −23%; inhibition of probe labeling, CRBN_441, Den. [15]: −26%; inhibition of probe labeling, CRBN_234, Den. [16]: 45%; inhibition of probe labeling, CRBN_234, Nat. [16]: −4%; inhibition of probe labeling, CRBN_219, Den. [17]: 57%; inhibition of probe labeling, CRBN_219, Nat. [17]: 40%; inhibition of probe labeling, CRBN_318, Den. [18]: 53%; inhibition of probe labeling, CRBN_287, Den. [19]: 59% |
